The values that follow are results of earlier work, collected in US20160082159A1, “BALLOON SURFACE COATING” (priority 2013, published 2016).

For this data set the following is noted: in humans.

Turning to `CC(=O)O[C@H]1C(=O)[C@@]2(C)[C@H]([C@H](OC(=O)c3ccccc3)[C@]3(O)C[C@H](OC(=O)[C@H](O)[C@@H](NC(=O)c4ccccc4)c4ccccc4)C(C)=C1C3(C)C)[C@]1(OC(C)=O)CO[C@@H]1C[C@@H]2O` [paclitaxel], the “normal plasma half-life of paclitaxel” value is listed as “approximately 60 min”.
